Data on one compound can be found in patent publication US4565699A, “Composition of matter and process” (The Upjohn Company, priority 1983, dated 1986).

Values after ≈ are worked out from the molar mass of the structure shown. Like-named read-outs stand apart in the source and are kept apart here.

One data set is described as follows: Solubilities. In kind it is physicochemical.
The subject of the next data set is Gram-positive bacteria. In words: Antimicrobial spectrum. It is filed as cell-based. The source says:
(§1) The assay is a standard tube dilution assay using BHI (Brain Heart Infusion medium-Difco). "UC" is a registered trademark of The Upjohn Company Culture Collection.

A further data set concerns Pseudomonas aeruginosa. In words: MIC, standard tube dilution assay, BHI medium. In kind it is cell-based.
Excerpt: as §1

The test system of a further data set is Streptococcus pyogenes. In words: MIC, standard tube dilution assay, BHI medium. It is filed as cell-based. The note with it: UC152, UC 152, read-out: Minimum inhibitory concentration.
Excerpt: as §1

Another data set deals with Klebsiella pneumoniae. In words: MIC, standard tube dilution assay, BHI medium. In kind it is cell-based. The settings on record: UC58, UC 58, read-out: Minimum inhibitory concentration.
Excerpt: as §1

Another data set has as its system Haemophilus influenzae. In words: MIC, standard tube dilution assay, BHI medium. In kind it is cell-based.
Excerpt: as §1

Another data set relates to Serratia marcescens. In words: MIC, standard tube dilution assay, BHI medium. It is filed as cell-based. The note with it: UC6888, UC 6888, read-out: Minimum inhibitory concentration.
Excerpt: as §1

In another data set the test system is Streptococcus pneumoniae. In words: MIC, standard tube dilution assay, BHI medium. It is filed as cell-based. The note with it: UC41, UC 41, read-out: Minimum inhibitory concentration.
Excerpt: as §1

A further data set relates to Escherichia coli. In words: MIC, standard tube dilution assay, BHI medium. It is filed as cell-based. The settings on record: UC311, UC 311, read-out: Minimum inhibitory concentration.
Excerpt: as §1

A further data set relates to Enterobacter cloacae. In words: MIC, standard tube dilution assay, BHI medium. In kind it is cell-based. The settings on record: UC9382, UC 9382, read-out: Minimum inhibitory concentration.
Excerpt: as §1

The subject of another data set is Streptococcus faecalis. In words: MIC, standard tube dilution assay, BHI medium. It is filed as cell-based. The settings on record: Enterococcus faecalis, UC694; UC 694; read-out: Minimum inhibitory concentration.
Excerpt: as §1

Another data set relates to Staphylococcus aureus. In words: MIC, standard tube dilution assay, BHI medium. It is filed as cell-based.
Excerpt: as §1

The test system of the next data set is Citrobacter freundii. In words: MIC, standard tube dilution assay, BHI medium. The note with it: UC3507, UC 3507, read-out: Minimum inhibitory concentration. In kind it is cell-based.
Excerpt: as §1

In the case of `C=C/C(C)=C/C1(CC)SC(=O)C(CC(N)=O)=C1O` (stereo not shown) [U-68,204], the Solubility entry in “Solubilities” (most organic solvents) was “soluble in most organic solvents”; in “Solubilities” (water) it was “not soluble in water”. For the same compound, the “Activity against various Gram-positive bacteria” value in the data set with Gram-positive bacteria is reported as “active”. The MIC in the data set with Pseudomonas aeruginosa (UC6432, UC 6432, read-out: Minimum inhibitory concentration) is greater than 600 µg/mL; in the data set on Pseudomonas aeruginosa (UC6676, UC 6676, read-out: Minimum inhibitory concentration), greater than 600 µg/mL; with Pseudomonas aeruginosa (UC6954, UC 6954, read-out: Minimum inhibitory concentration) it was greater than 600 µg/mL; in the data set with Pseudomonas aeruginosa (UC6955, UC 6955, read-out: Minimum inhibitory concentration), 19 µg/mL (≈ 71.1 µM); in the data set with Pseudomonas aeruginosa (UC9027, UC 9027, read-out: Minimum inhibitory concentration), 37.5 µg/mL (≈ 140 µM); in the data set on Streptococcus pyogenes, greater than 600 µg/mL. The MIC is 300 µg/mL (≈ 1120 µM) in the data set on Klebsiella pneumoniae; 9.4 µg/mL (≈ 35.2 µM) with Haemophilus influenzae (UC6482, UC 6482, read-out: Minimum inhibitory concentration); 19 µg/mL (≈ 71.1 µM) in the data set on Haemophilus influenzae (UC6483, UC 6483, read-out: Minimum inhibitory concentration); greater than 600 µg/mL in the data set on Serratia marcescens; greater than 600 µg/mL with Streptococcus pneumoniae; 600 µg/mL (≈ 2240 µM) in the data set on Escherichia coli. In addition, the MIC with Enterobacter cloacae was greater than 600 µg/mL; in the data set on Streptococcus faecalis, greater than 600 µg/mL; in the data set with Staphylococcus aureus (UC76, UC 76, read-out: Minimum inhibitory concentration), 75 µg/mL (≈ 281 µM); in the data set with Staphylococcus aureus (UC3665, UC 3665, read-out: Minimum inhibitory concentration) it was 75 µg/mL (≈ 281 µM); in the data set with Staphylococcus aureus (UC6675, UC 6675, read-out: Minimum inhibitory concentration), 75 µg/mL (≈ 281 µM); in the data set on Staphylococcus aureus (UC6685, UC 6685, read-out: Minimum inhibitory concentration) it was 600 µg/mL (≈ 2240 µM). The MIC in the data set on Citrobacter freundii is greater than 600 µg/mL.
